Data from ChEMBL document CHEMBL6074667, “Discovery and Optimization of First-in-Class Molecular Glue Degraders of the WIZ Transcription Factor for Fetal Hemoglobin Induction to Treat Sickle Cell Disease” (J Med Chem, 2024).
Values after ≈ are worked out from the molar mass of the structure shown.

System: not listed separately
Experiment: Solubility of compound in potassium phosphate buffer at pH 6.8 incubated for 16 to 24 hrs by high-throughput Agilent Rapidfire-MS/MS analysis
Assay type: physicochemical
Details: time 16-24 hrs
In the case of `CCN1C[C@H](Oc2ccc3c(c2)CN(C2CCC(=O)NC2=O)C3=O)CC[C@@H]1C` (stereo partly drawn), the solubility is reported as 480 µM (≈ 185 µg/mL).

System: not listed separately
Experiment: Apparent permeability across apical to basolateral side in low efflux MDCK cells at 10 uM incubated for 2 hrs by LC-MS analysis
Assay type: ADME, cell-based, Canis lupus familiaris
Details: dog
Compound `CCN1C[C@H](Oc2ccc3c(c2)CN(C2CCC(=O)NC2=O)C3=O)CC[C@@H]1C` (stereo partly drawn) has a Papp A→B at 2 h, 10 µM of 0.3 ×10⁻⁶ cm/s.

System: not listed separately
Experiment: Apparent permeability across apical to basolateral side in low efflux MDCK cells assessed as drug recovery at 10 uM incubated for 2 hrs by LC-MS analysis
Assay type: ADME, cell-based, Canis lupus familiaris
Details: dog, read-out: Drug recovery
Compound `CCN1C[C@H](Oc2ccc3c(c2)CN(C2CCC(=O)NC2=O)C3=O)CC[C@@H]1C` (stereo partly drawn) has a recovery at 2 h, 10 µM of 75%.

System: not listed separately
Experiment: Intrinsic clearance in mouse liver microsomes
Assay type: ADME, Microsome
Details: read-out: CLH
With `CCN1C[C@H](Oc2ccc3c(c2)CN(C2CCC(=O)NC2=O)C3=O)CC[C@@H]1C` (stereo partly drawn) the microsomal CLint was < 25 µL/min/mg.

System: not listed separately
Experiment: Intrinsic clearance in rat liver microsomes
Assay type: ADME, Microsome
Details: read-out: CLH
With `CCN1C[C@H](Oc2ccc3c(c2)CN(C2CCC(=O)NC2=O)C3=O)CC[C@@H]1C` (stereo partly drawn) the microsomal CLint was < 25 µL/min/mg.

System: not listed separately
Experiment: Intrinsic clearance in human liver microsomes
Assay type: ADME, Microsome
Details: read-out: CLH
For `CCN1C[C@H](Oc2ccc3c(c2)CN(C2CCC(=O)NC2=O)C3=O)CC[C@@H]1C` (stereo partly drawn), the microsomal CLint was < 25 µL/min/mg.

System: not listed separately
Experiment: Protein binding in mouse plasma
Assay type: ADME, cell-free
Details: read-out: PPB (converted)
For `CCN1C[C@H](Oc2ccc3c(c2)CN(C2CCC(=O)NC2=O)C3=O)CC[C@@H]1C` (stereo partly drawn), the fraction unbound was 0.77.

System: not listed separately
Experiment: Protein binding in rat plasma
Assay type: ADME, cell-free
Details: read-out: PPB (converted)
`CCN1C[C@H](Oc2ccc3c(c2)CN(C2CCC(=O)NC2=O)C3=O)CC[C@@H]1C` (stereo partly drawn) showed a fraction unbound of 0.71.

System: not listed separately
Experiment: Protein binding in human plasma
Assay type: ADME, cell-free
Details: read-out: PPB (converted)
`CCN1C[C@H](Oc2ccc3c(c2)CN(C2CCC(=O)NC2=O)C3=O)CC[C@@H]1C` (stereo partly drawn) gave a fraction unbound of 0.72.

System: not listed separately
Experiment: Half-life in C57BL/6 mouse at 1 mg/kg, iv
Assay type: ADME, organism-based
Details: in vivo
In the case of `CCN1C[C@H](Oc2ccc3c(c2)CN(C2CCC(=O)NC2=O)C3=O)CC[C@@H]1C` (stereo partly drawn), the half-life is reported as 192 min.

System: not listed separately
Experiment: Clearance in C57BL/6 mouse at 1 mg/kg, iv
Assay type: ADME, organism-based
Details: in vivo
With `CCN1C[C@H](Oc2ccc3c(c2)CN(C2CCC(=O)NC2=O)C3=O)CC[C@@H]1C` (stereo partly drawn) the clearance was 29 mL/min/kg.

System: not listed separately
Experiment: Volume of distribution at steady state in C57BL/6 mouse at 1 mg/kg, iv
Assay type: ADME, organism-based
Details: in vivo, read-out: Vdss
Work on `CCN1C[C@H](Oc2ccc3c(c2)CN(C2CCC(=O)NC2=O)C3=O)CC[C@@H]1C` (stereo partly drawn) yielded a Vd of 4.4 L/kg.

System: not listed separately
Experiment: AUClast in C57BL/6 mouse at 3 mg/kg, po
Assay type: ADME, organism-based
Details: in vivo
`CCN1C[C@H](Oc2ccc3c(c2)CN(C2CCC(=O)NC2=O)C3=O)CC[C@@H]1C` (stereo partly drawn) gave an AUC(0-t) of 0.377 µM·h.

System: not listed separately
Experiment: Cmax in C57BL/6 mouse at 3 mg/kg, po
Assay type: ADME, organism-based
Details: in vivo
`CCN1C[C@H](Oc2ccc3c(c2)CN(C2CCC(=O)NC2=O)C3=O)CC[C@@H]1C` (stereo partly drawn) showed a Cmax of 118 nM.

System: not listed separately
Experiment: Tmax in C57BL/6 mouse at 3 mg/kg, po or 1 mg/kg, iv
Assay type: ADME, organism-based
Details: in vivo
For `CCN1C[C@H](Oc2ccc3c(c2)CN(C2CCC(=O)NC2=O)C3=O)CC[C@@H]1C` (stereo partly drawn), the Tmax was 1 h.

System: not listed separately
Experiment: Bioavailability last in C57BL/6 mouse
Assay type: ADME, organism-based
Details: in vivo
For `CCN1C[C@H](Oc2ccc3c(c2)CN(C2CCC(=O)NC2=O)C3=O)CC[C@@H]1C` (stereo partly drawn), the bioavailability was 8.5%.

Target: T1, Protein cereblon/Protein Wiz (Homo sapiens, UniProt Q96SW2+O95785)
Experiment: Molecular glue activity at CRBN/HiBiT-tagged WIZ (unknown origin) expressed in HEK293T cells assessed as induction of WIZ degradation incubated for 18 hrs by Nano-Glo HiBiT-Lytic reagent based luminescence plate reader analysis
Assay type: cell-based
Details: not given
Target sequence in this assay (Q96SW2 whole entry): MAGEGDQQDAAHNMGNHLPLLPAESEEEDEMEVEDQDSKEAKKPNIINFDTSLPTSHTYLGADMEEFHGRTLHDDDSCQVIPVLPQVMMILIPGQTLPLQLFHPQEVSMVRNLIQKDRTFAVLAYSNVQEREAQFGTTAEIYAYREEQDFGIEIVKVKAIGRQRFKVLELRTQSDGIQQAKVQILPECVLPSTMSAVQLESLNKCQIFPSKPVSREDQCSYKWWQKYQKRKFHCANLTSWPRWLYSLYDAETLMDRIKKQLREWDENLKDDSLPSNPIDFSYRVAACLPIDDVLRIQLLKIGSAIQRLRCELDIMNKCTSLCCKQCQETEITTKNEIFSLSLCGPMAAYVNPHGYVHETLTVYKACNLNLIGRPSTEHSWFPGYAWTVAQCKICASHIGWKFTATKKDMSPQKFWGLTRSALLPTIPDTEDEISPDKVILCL
Target sequence in this assay (O95785 whole entry): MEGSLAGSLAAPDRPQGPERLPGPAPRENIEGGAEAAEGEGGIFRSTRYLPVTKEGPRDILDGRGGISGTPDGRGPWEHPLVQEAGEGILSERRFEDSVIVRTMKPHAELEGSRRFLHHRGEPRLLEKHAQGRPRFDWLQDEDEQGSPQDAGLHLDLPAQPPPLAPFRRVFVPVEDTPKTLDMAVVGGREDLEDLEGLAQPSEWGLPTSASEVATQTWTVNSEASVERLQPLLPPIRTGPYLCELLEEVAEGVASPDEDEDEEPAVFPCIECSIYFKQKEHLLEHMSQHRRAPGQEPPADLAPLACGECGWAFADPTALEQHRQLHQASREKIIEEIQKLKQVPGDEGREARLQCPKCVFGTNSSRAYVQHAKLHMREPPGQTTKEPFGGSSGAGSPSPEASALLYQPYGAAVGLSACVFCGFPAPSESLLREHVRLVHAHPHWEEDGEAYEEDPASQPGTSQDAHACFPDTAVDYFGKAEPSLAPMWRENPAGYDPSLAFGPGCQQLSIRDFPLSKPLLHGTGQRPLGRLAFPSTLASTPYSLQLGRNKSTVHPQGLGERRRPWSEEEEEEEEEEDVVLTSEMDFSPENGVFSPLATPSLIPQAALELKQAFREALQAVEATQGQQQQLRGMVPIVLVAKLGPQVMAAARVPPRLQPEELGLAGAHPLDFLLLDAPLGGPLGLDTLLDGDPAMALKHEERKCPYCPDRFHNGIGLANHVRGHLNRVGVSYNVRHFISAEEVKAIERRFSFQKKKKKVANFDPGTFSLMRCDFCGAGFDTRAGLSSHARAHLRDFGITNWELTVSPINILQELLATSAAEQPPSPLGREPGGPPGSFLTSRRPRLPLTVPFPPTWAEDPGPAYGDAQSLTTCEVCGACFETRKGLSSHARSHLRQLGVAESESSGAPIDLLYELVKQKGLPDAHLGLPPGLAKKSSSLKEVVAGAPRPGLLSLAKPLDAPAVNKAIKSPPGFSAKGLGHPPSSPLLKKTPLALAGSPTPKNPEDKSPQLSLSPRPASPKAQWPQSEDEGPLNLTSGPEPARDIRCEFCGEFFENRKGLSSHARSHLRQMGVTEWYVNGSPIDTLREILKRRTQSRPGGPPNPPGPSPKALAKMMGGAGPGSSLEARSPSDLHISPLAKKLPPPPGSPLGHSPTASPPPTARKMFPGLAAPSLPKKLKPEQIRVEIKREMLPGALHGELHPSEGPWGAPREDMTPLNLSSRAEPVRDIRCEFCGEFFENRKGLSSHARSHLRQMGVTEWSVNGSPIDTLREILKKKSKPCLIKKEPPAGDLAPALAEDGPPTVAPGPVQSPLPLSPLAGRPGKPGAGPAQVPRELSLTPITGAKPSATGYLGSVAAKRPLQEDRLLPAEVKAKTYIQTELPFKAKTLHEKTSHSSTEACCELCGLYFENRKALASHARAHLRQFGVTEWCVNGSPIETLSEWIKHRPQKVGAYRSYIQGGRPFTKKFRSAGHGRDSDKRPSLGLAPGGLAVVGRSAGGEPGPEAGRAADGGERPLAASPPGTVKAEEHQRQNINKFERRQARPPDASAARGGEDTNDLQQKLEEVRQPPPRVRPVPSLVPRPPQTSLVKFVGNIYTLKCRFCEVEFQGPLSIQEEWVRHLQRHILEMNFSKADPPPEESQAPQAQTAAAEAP
For `CCN1C[C@H](Oc2ccc3c(c2)CN(C2CCC(=O)NC2=O)C3=O)CC[C@@H]1C` (stereo partly drawn), the DC50 was 3 nM.

Target: T1, Protein cereblon/Protein Wiz
Experiment: Molecular glue activity at CRBN/HiBiT-tagged WIZ (unknown origin) expressed in HEK293T cells assessed as induction of WIZ degradation incubated for 18 hrs by Nano-Glo HiBiT-Lytic reagent based luminescence plate reader analysis relative to control
Assay type: cell-based
Design: concentration or dose not given beside the values
Details: not given
Target sequence in this assay (O95785 whole entry, looked up): as the sequence (O95785 whole entry) above
Target sequence in this assay (Q96SW2 whole entry, looked up): as the sequence (Q96SW2 whole entry) above
`CCN1C[C@H](Oc2ccc3c(c2)CN(C2CCC(=O)NC2=O)C3=O)CC[C@@H]1C` (stereo partly drawn) showed an Activity of 88%.

Target: T2, Protein cereblon/Sal-like protein 4 (Homo sapiens, UniProt Q96SW2+Q9UJQ4)
Experiment: Molecular glue activity at CRBN/HiBiT-tagged SALL4 (unknown origin) expressed in human GripTite 293 MSR cells assessed as induction of SALL4 degradation incubated for 20 hrs by Nano-Glo HiBiT-Lytic reagent based luminescence plate reader analysis
Assay type: cell-based
Details: not given
In the case of `CCN1C[C@H](Oc2ccc3c(c2)CN(C2CCC(=O)NC2=O)C3=O)CC[C@@H]1C` (stereo partly drawn), the DC50 is reported as > 50 µM.

Target: T2, Protein cereblon/Sal-like protein 4
Experiment: Molecular glue activity at CRBN/HiBiT-tagged SALL4 (unknown origin) expressed in human GripTite 293 MSR cells assessed as induction of SALL4 degradation incubated for 20 hrs by Nano-Glo HiBiT-Lytic reagent based luminescence plate reader analysis relative to control
Assay type: cell-based
Design: concentration or dose not given beside the values
Details: not given
With `CCN1C[C@H](Oc2ccc3c(c2)CN(C2CCC(=O)NC2=O)C3=O)CC[C@@H]1C` (stereo partly drawn) the Activity was 32%.

Target: T3, Cereblon/Ikaros (Homo sapiens, UniProt Q96SW2+Q13422)
Experiment: Molecular glue activity at CRBN/HiBiT-tagged IKZF1 (unknown origin) expressed in human GripTite 293 MSR cells assessed as induction of […] incubated for 20 hrs by Nano-Glo HiBiT-Lytic reagent based luminescence plate reader analysis
Assay type: cell-based
Details: not given
With `CCN1C[C@H](Oc2ccc3c(c2)CN(C2CCC(=O)NC2=O)C3=O)CC[C@@H]1C` (stereo partly drawn) the DC50 was > 50 µM.

Target: T3, Cereblon/Ikaros
Experiment: Molecular glue activity at CRBN/HiBiT-tagged IKZF1 (unknown origin) expressed in human GripTite 293 MSR cells assessed as induction of […] incubated for 20 hrs by Nano-Glo HiBiT-Lytic reagent based luminescence plate reader analysis relative to control
Assay type: cell-based
Design: concentration or dose not given beside the values
Details: not given
Compound `CCN1C[C@H](Oc2ccc3c(c2)CN(C2CCC(=O)NC2=O)C3=O)CC[C@@H]1C` (stereo partly drawn) has an Activity of 10%.

Target: T4, Protein cereblon/Eukaryotic peptide chain release factor GTP-binding subunit ERF3A (Homo sapiens, UniProt Q96SW2+P15170)
Experiment: Molecular glue activity at CRBN/HiBiT-tagged GSPT1 (unknown origin) expressed in human GripTite 293 MSR cells assessed as induction of GSPT1 degradation incubated for 20 hrs by Nano-Glo HiBiT-Lytic reagent based luminescence plate reader analysis
Assay type: cell-based
Details: not given
In the case of `CCN1C[C@H](Oc2ccc3c(c2)CN(C2CCC(=O)NC2=O)C3=O)CC[C@@H]1C` (stereo partly drawn), the DC50 is reported as > 50 µM.

Target: T4, Protein cereblon/Eukaryotic peptide chain release factor GTP-binding subunit ERF3A
Experiment: Molecular glue activity at CRBN/HiBiT-tagged GSPT1 (unknown origin) expressed in human GripTite 293 MSR cells assessed as induction of GSPT1 degradation incubated for 20 hrs by Nano-Glo HiBiT-Lytic reagent based luminescence plate reader analysis relative to control
Assay type: cell-based
Design: concentration or dose not given beside the values
Details: not given
For `CCN1C[C@H](Oc2ccc3c(c2)CN(C2CCC(=O)NC2=O)C3=O)CC[C@@H]1C` (stereo partly drawn), the Activity was < 10%.

Target: T1, Protein cereblon/Protein Wiz
Experiment: Molecular glue activity at CRBN/WIZ in human CD34-positive derived primary erythroblast cells assessed as induction of WIZ degradation measured after 24 hrs by flow cytometric analysis
Assay type: cell-based
Details: not given
Target sequence in this assay (Q96SW2 whole entry): as above
Target sequence in this assay (O95785 whole entry): as the sequence (O95785 whole entry) above
With `CCN1C[C@H](Oc2ccc3c(c2)CN(C2CCC(=O)NC2=O)C3=O)CC[C@@H]1C` (stereo partly drawn) the DC50 was 3 nM.

Target: T1, Protein cereblon/Protein Wiz
Experiment: Molecular glue activity at CRBN/WIZ in human CD34-positive derived primary erythroblast cells assessed as induction of WIZ degradation by measuring maximal efficacy measured after 24 hrs by flow cytometric analysis relative to control
Assay type: cell-based
Details: not given
Target sequence in this assay (O95785 whole entry, looked up): as the sequence (O95785 whole entry) above
Target sequence in this assay (Q96SW2 whole entry, looked up): as the sequence (Q96SW2 whole entry) above
With `CCN1C[C@H](Oc2ccc3c(c2)CN(C2CCC(=O)NC2=O)C3=O)CC[C@@H]1C` (stereo partly drawn) the Emax was 84%.

Target: Protein cereblon/Protein Wiz (Homo sapiens, UniProt O95785+Q96SW2)
Experiment: Molecular glue activity at CRBN/WIZ in human CD34-positive derived primary erythroblast cells assessed as increase in fetal hemoglobin positive cells in CD71+ CD235a+ subpopulation measured after 7 days by flow cytometric analysis
Assay type: cell-based
Details: not given
Work on `CCN1C[C@H](Oc2ccc3c(c2)CN(C2CCC(=O)NC2=O)C3=O)CC[C@@H]1C` (stereo partly drawn) yielded an EC50 of 78 nM.

Target: T1, Protein cereblon/Protein Wiz
Experiment: Molecular glue activity at CRBN/WIZ in human CD34-positive derived primary erythroblast cells assessed as increase in fetal hemoglobin positive cells in CD71+ CD235a+ subpopulation measured after 7 days by flow cytometric analysis relative to control
Assay type: cell-based
Details: time 7.0 day
Target sequence in this assay (O95785 whole entry, looked up): as the sequence (O95785 whole entry) above
Target sequence in this assay (Q96SW2 whole entry, looked up): as the sequence (Q96SW2 whole entry) above
In the case of `CCN1C[C@H](Oc2ccc3c(c2)CN(C2CCC(=O)NC2=O)C3=O)CC[C@@H]1C` (stereo partly drawn), the Activity is reported as 36%.
